Data on three molecules can be found in PMC4590290 (Bioorganic chemistry, 2009).

For assay [1], the target named is T1, GlAD (Giardia duodenalis, UniProt Q27657). The assay is described as follows: steady-state inhibition, glutamate dehydrogenase-coupled assay. Format: biochemical.
The target in assay [2] is T1, GlAD. Format: biochemical. To be noted: read-out: KI; pH 7.5, 25 °C, 50 mM K+HEPES; covalent; irreversible, two-step inactivation; active site directed.

The term Ki denotes a dissociation constant, usually derived from enzyme kinetics or from competition with a known ligand. High values mean lower affinity, low ones higher affinity. The molecule `N=C(N)NCCCC[C@H](N)C(=O)O` [L-homoarginine] displayed a Ki in assay [1] of 48 ± 6 mM.
Consider `N[C@@H](CCSN=O)C(=O)O` [S-nitroso-L-homocysteine], for which the KI (inactivation) in assay [2] came to 40 ± 10 mM.
In assay [1], `N=C(N)NCCCCN` [agmatine] returned a Ki of 50 ± 10 mM.
